The target in the experiment is T1, DoGES1 (Dendrobium officinale, UniProt A0A7H9SVV5).
T1 construct: gene GES1
T1 sequence (A0A7H9SVV5 1-582): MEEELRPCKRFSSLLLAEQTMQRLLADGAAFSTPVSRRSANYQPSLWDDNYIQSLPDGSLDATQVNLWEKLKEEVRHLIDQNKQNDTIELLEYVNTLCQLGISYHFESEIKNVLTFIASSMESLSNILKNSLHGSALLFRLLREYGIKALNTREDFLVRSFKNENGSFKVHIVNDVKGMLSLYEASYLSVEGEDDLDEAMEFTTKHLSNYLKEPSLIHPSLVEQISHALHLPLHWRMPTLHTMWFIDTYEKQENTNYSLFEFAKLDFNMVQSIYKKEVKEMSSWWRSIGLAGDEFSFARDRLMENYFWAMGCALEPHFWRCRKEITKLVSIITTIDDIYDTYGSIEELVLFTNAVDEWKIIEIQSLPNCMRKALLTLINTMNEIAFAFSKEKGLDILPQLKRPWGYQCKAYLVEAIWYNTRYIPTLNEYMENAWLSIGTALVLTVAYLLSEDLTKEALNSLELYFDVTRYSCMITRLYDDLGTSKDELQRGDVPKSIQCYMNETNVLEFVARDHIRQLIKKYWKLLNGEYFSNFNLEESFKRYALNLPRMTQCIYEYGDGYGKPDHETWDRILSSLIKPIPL
Nature of the experiment: GC-MS detection of geraniol product. The class given is biochemical. The note with it: 10 mM GPP, 10 mM MgCl2, 5 mM dithiothreitol, MOPSO pH 7.0, 30 °C, 1 h.

Regarding `CC(C)=CCC/C(C)=C/COP(=O)(O)OP(=O)(O)O` [geranyl pyrophosphate], the “GC-MS detection of geraniol product” value is listed as “After incubation with GPP as substrate for the synthesis of monoterpenes, recombinant DoGES1 proteins successfully yielded geraniol”.

(Values after paper PMC7582308, “Functional Characterization of a Dendrobium officinale Geraniol Synthase DoGES1 Involved in Floral Scent Formation” (International Journal of Molecular Sciences, 2020).)
